Test results reported in paper PMC7567103 (Nature Communications, 2020).

Legend:
[1] = target: T1, GHRHR(23-405)-15AA-LgBiT-2MBP (Homo sapiens, UniProt Q02643); assay: whole cell binding, competitive inhibition of 125I-GHRH (Supplementary Fig. 2c); details: competition with 80 pM 125I-GHRH; whole HEK 293T cells, RT 3 h; mean ± SEM, n = 7-8
T1 construct: 24 h after transfection with GHRHR(23-423), GHRHR(23-405), GHRHR(23-405)-LgBiT-2MBP, or HA-Flag-GHRHR (WT and mutants); HA signal peptide (replaces native signal M1-G22) (N); expressed in transfected cells; host or cells: HEK 293 T
T1 sequence (Q02643 23-405): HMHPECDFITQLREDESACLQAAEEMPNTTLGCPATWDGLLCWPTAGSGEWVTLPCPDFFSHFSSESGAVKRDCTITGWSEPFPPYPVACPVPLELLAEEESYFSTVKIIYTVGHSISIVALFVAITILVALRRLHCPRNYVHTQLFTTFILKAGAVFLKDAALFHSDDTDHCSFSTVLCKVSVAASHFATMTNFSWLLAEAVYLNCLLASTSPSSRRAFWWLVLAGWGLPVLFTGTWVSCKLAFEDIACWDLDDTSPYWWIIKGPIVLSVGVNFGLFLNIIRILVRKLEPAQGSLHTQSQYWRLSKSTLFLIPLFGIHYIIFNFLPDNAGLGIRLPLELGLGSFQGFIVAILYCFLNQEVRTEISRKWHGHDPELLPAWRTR
Method: (§1) This assay was conducted in 96-well Iso-plates (PerkinElmer) coated with poly-D-lysine hydrobromide (Sigma-Aldrich). Twenty-four hour after transfection with GHRHR(23-423) or GHRHR(23-405)-LgBiT-2MBP, HEK 293 T cells were washed twice, and incubated with blocking buffer (DMEM medium supplemented with 33 mM HEPES, and 0.1% (w/v) BSA, pH 7.4) for 2 h at 37 °C. Then, radiolabeled ^125I-GHRH (80 pM, Phoenix Biotech) and seven decreasing concentrations of unlabeled peptide (10 μM, […]) were added and competitively reacted with the cells in binding buffer (PBS supplemented with 10% (w/v) BSA, pH 7.4) at RT for 3 h. Cells were washed with ice-cold PBS and lysed by 50 μL lysis buffer (PBS supplemented with 20 mM Tris-HCl and 1% (v/v) Triton X-100, pH 7.4). Finally, 150 μL of scintillation cocktail (OptiPhase SuperMix, PerkinElmer) was employed and radioactivity (counts per minute) read in a scintillation counter (MicroBeta[2] plate counter, PerkinElmer).
(§2) 93 of transfection. Data are normalized by the WT receptor and fitted with a three-
(§3) 94 parameter logistic equation. All values are means ± S.E.M. of at least three […]
(§4) Binding affinity is quantified by
(§5) 97 reduction of radioactivity (counts per minute, CPM) and normalized to the […]
(§6) 231 Binding data were analyzed using a three-parameter logistic equation to […]
(§7) 234 determine statistical difference. *P<0.01; ND, not determined.

GHRHR(23-423) (WT) = target: T2, GHRHR(23-423) (WT) (Homo sapiens, UniProt Q02643); assay: as above; details: competition with 80 pM 125I-GHRH; whole HEK 293T cells, RT 3 h; mean ± SEM, n = 7-8
T2 construct: 24 h after transfection with GHRHR(23-423), GHRHR(23-405), GHRHR(23-405)-LgBiT-2MBP, or HA-Flag-GHRHR (WT and mutants); HA signal peptide (replaces native signal M1-G22) (N); expressed in transfected cells; host or cells: HEK 293 T
T2 sequence (Q02643 23-423): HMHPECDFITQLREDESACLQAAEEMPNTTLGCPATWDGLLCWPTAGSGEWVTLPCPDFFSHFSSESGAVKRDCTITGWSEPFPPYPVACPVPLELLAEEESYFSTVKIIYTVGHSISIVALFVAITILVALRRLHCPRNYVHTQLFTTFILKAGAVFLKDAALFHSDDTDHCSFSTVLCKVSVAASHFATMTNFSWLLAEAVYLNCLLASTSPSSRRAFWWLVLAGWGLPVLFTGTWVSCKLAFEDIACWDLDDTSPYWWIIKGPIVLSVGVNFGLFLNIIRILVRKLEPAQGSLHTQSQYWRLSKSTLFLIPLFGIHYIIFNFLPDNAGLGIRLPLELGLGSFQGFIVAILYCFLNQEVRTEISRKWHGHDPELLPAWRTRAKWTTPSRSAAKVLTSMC
Method: as §1, §2, §3, §4, §5, §6, §7

## CC[C@H](C)[C@H](NC(=O)[C@H](C)NC(=O)[C@H](CC(=O)O)NC(=O)[C@H](C)NC(=O)[C@@H](N)Cc1ccc(O)cc1)C(=O)N[C@@H](Cc1ccccc1)C(=O)N[C@H](C(=O)N[C@@H](CC(N)=O)C(=O)N[C@@H](CO)C(=O)N[C@@H](Cc1ccc(O)cc1)C(=O)N[C@@H](CCCNC(=N)N)C(=O)N[C@@H](CCCCN)C(=O)N[C@H](C(=O)N[C@@H](CC(C)C)C(=O)NCC(=O)N[C@@H](CCC(N)=O)C(=O)N[C@@H](CC(C)C)C(=O)N[C@@H](CO)C(=O)N[C@@H](C)C(=O)N[C@@H](CCCNC(=N)N)C(=O)N[C@@H](CCCCN)C(=O)N[C@@H](CC(C)C)C(=O)N[C@@H](CC(C)C)C(=O)N[C@@H](CCC(N)=O)C(=O)N[C@@H](CC(=O)O)C(=O)N[C@H](C(=O)N[C@@H](CCSC)C(=O)N[C@@H](CO)C(=O)N[C@@H](CCCNC(=N)N)C(=O)N[C@@H](CCC(N)=O)C(=O)N[C@@H](CCC(N)=O)C(=O)NCC(=O)N[C@@H](CCC(=O)O)C(=O)N[C@@H](CO)C(=O)N[C@@H](CC(N)=O)C(=O)N[C@@H](CCC(N)=O)C(=O)N[C@@H](CCC(=O)O)C(=O)N[C@@H](CCCNC(=N)N)C(=O)NCC(=O)N[C@@H](C)C(=O)N[C@@H](CCCNC(=N)N)C(=O)N[C@@H](C)C(=O)N[C@@H](CCCNC(=N)N)C(=O)N[C@@H](CC(C)C)C(N)=O)[C@@H](C)CC)C(C)C)[C@@H](C)O [GHRH, Growth hormone-releasing hormone]
[1]
  IC50: 0.879 nM
GHRHR(23-423) (WT)
  IC50: 2.75 nM
